Assay results from US6884796B2, “Meiosis regulating compounds” (NovoNordisk A/S, priority 1998, dated 2005).

Tests used:
[1] = tested on: naked oocytes (NO); assay: Agonistic oocyte assay: germinal vesicle breakdown and polar body formation in naked oocytes cultured in Hx-medium; assay type: cell-based, mice; conditions: 10 mikroM; for mean % GVB / mean % PB: naked oocytes (NO) cultured in vitro for 24 hours in Hx-medium; for mean Relative Effect: naked oocytes (NO), 24 hours, indexed: control = 0, FF-MAS = 100
Procedure: An agonistic oocyte assay can be performed as follows:
Oocytes were obtained from immature female mice (C57BU6J x DBA/2J F1, Bomholtgaard, Denmark) weighing 13-16 grams, that were kept under controlled temperature (20-22° C.), light (lights on 06.00-18.00) and relative humidity (50-70%). The mice received an intra-peritoneal injection of 0.2 ml gonadotropins (Gonal-F, Serono) containing 20 IU FSH and 48 hours later the animals were killed by cervical dislocation.
The ovaries were dissected out and the oocytes were isolated in Hx-medium (see below) under a stereo microscope by manual rupture of the follicles using a pair of 27 gauge needles. Spherical oocytes displaying an intact germinal vesicle (hereinafter designated GV) were divided in cumulus enclosed oocytes (hereinafter designated CEO) and naked oocytes (hereinafter designated NO) and placed in a-minimum essential medium (α-MEM without ribonucleosides, Gibco BRL, Cat. No. 22561) supplemented with 3 mg/ml bovine serum albumin (BSA, Sigma Cat. No. A-7030), 5 mg/ml human serum albumin (HSA, Statens Seruminstitute, Denmark), 0.23 mM pyruvate (Sigma, Cat. No S-8636), 2 mM glutamine (Flow Cat. No. 16-801), 100 IU/ml penicillin and 100 μg/ml streptomycin (Flow, Cat No. 16-700). This medium was supplemented with 3 mM hypoxanthine (Sigma Cat. No. H-9377) and designated Hx-medium.
The oocytes were rinsed three times in Hx-medium and oocytes of uniform size were divided into groups of CEO and NO. CEO and NO were cultured in 4-well multidishes (Nunclon, Denmark) in which each well contained 0.4 ml of Hx-medium. One control well (i.e., 35-45 oocytes cultured in identical medium with no addition of test compound) was always cultured simultaneously with 3 test wells (35-45 oocytes per well supplemented with test compound).
The oocytes were cultured in a humidified atmosphere of 5% CO2 in air for 24 hours at 37° C. By the end of the culture period, the number of oocytes with germinal vesicle (hereinafter designated GV), germinal vesicle breakdown (hereinafter designated GVB) and polar bodies (hereinafter designated PB), respectively, were counted using a stereomicroscope (Wildt, Leica MZ 12). The percentage GVB, defined as percentage of oocytes undergoing GVB per total number of oocytes in that well, was calculated as: % GVB=(number of GVB+number of PB/total number oocytes)×100.
The % PB was defined as percentage of oocytes displaying one extruded polar body per total number of oocytes in that well.
The effect of the tested compounds has been indexed against control level and 4,4-dimethyl-5α-cholesta-8,14,24-trien-3β-ol (hereinafter designated FF-MAS) where controls and FF-MAS are indexed to an effect of 0 and 100, respectively. The relative effect of the tested compound is calculated as follows: Relative effect=((test GVB %−control GVB %)/(FF-MAS GVB %−control GVB %))×100. Results

[2] = tested on: naked oocytes (NO); conditions: Byskov et al. Nature 374 (1995), 559-562; cited from earlier work

Row | SMILES | melting point | mean % GVB [1] | mean % PB [1] | mean Relative Effect [1] | induction of meiosis in NO in vitro [2]
1 | C[C@H](CCC(N)=O)[C@H]1CC=C2C3=C(CC[C@@]21C)[C@@]1(C)CC[C@H](O)C(C)(C)[C@@H]1CC3 | 233 to 235 °C | – | – | – | –
2 | C[C@H](CCCNc1ccccc1)[C@H]1CC=C2C3=C(CC[C@@]21C)[C@@]1(C)CC[C@H](O)C(C)(C)[C@@H]1CC3 | 178 to 180 °C | – | – | – | –
3 | COC(=O)CC[C@@H](C)[C@H]1CC[C@H]2C3=CC=C4C(C)(C)[C@@H](O)CC[C@]4(C)[C@H]3CC[C@]12C | 124 to 128 °C | – | – | – | –
4 | C[C@H](CCC(=O)O)[C@H]1CC[C@H]2C3=CC=C4C(C)(C)[C@@H](O)CC[C@]4(C)[C@H]3CC[C@]12C | 210 to 213 °C | – | – | – | –
5 | C[C@H](CCC(=O)OC1CCCCC1)[C@H]1CC=C2C3=C(CC[C@@]21C)[C@@]1(C)CC[C@H](O)C(C)(C)[C@@H]1CC3 | 130 to 132 °C | – | – | – | –
6 | C[C@H](CCC(=O)OCc1ccccc1)[C@H]1CC=C2C3=C(CC[C@@]21C)[C@@]1(C)CC[C@H](O)C(C)(C)[C@@H]1CC3 | 118 to 119 °C | – | – | – | –
7 | C[C@H](CCC(=O)O)[C@H]1CC=C2C3=C(CC[C@@]21C)[C@@]1(C)CC[C@H](O)C(C)(C)[C@@H]1CC3 [Example 4, 3β-Hydroxy-4,4-dimethyl-5α-chola-8,14-dien-24-oic acid] | – | 10.5% | 3.5% | −10 | –
8 | CC(C)C(=O)CC[C@@H](C)[C@H]1CC=C2C3=C(CC[C@@]21C)[C@@]1(C)CC[C@H](O)C(C)(C)[C@@H]1CC3 [Example 6, 3β-Hydroxy4,4-dimethyl-5α-cholesta-8,14-dien-24-one] | – | 88% | 11% | 110 | –
9 | C[C@H](CCC(=O)Nc1ccccc1)[C@H]1CC=C2C3=C(CC[C@@]21C)[C@@]1(C)CC[C@H](O)C(C)(C)[C@@H]1CC3 [Example 10, 3β-Hydroxy-4,4-dimethyl-5α-chola-8,14-dien-24-oic acid-N-phenyl amide] | – | 10% | 3% | −10 | –
10 | Cc1ccc(C[C@@H](C)[C@H]2CC=C3C4=C(CC[C@@]32C)[C@@]2(C)CC[C@H](O)C(C)(C)[C@@H]2CC4)cc1 [Example 21, (20R)-4,4,20-Trimethyl-21-(4-methylphenyl)-5α-pregna-8,14-dien-3δ-ol] | – | 82% | 29.5% | 98 | –
11 | C[C@H](CC1CCCCC1)[C@H]1CC=C2C3=C(CC[C@@]21C)[C@@]1(C)CC[C@H](O)C(C)(C)[C@@H]1CC3 [Example 23, (20R), 4,20-Trimethyl-21-(cyclohexyl)-5α-pregna-8,14-dien-3β-ol] | – | 73.5% | 21.5% | 98 | –
12 | C=C(C)CCC[C@@H](C)[C@H]1CC=C2C3=C(CC[C@@]21C)[C@@]1(C)CC[C@H](O)C(C)(C)C1CC3 (stereo partly drawn) [Example 33, 4,4-Dimethylcholest-8,14,25-trien-3β-ol] | – | 70% | 14.5% | 105 | –
13 | CC(C)=CCC[C@@H](C)[C@H]1CC=C2C3=C(CC[C@@]21C)[C@@]1(C)CC[C@H](O)C(C)(C)[C@@H]1CC3 [FF-MAS, 4,4-dimethyl-5α-cholesta-8,14,24-trien-3β-ol, reference compound] | – | 86.1% | 28.5% | 100 | induce meiosis

More lines, main results first:

Row | melting point | SMILES | mean % GVB [1] | mean % PB [1] | mean Relative Effect [1] | induction of meiosis in NO in vitro [2]
14 | 156 to 157 °C | COC(=O)CC[C@@H](C)[C@H]1CC=C2C3=C(CC[C@@]21C)[C@@]1(C)CC[C@H](O)C(C)(C)[C@@H]1CC3 | – | – | – | –
15 | 122 to 124 °C | CCOC(=O)CC[C@@H](C)[C@H]1CC=C2C3=C(CC[C@@]21C)[C@@]1(C)CC[C@H](O)C(C)(C)[C@@H]1CC3 | – | – | – | –
16 | 171 to 176 °C | C[C@H](CCC(=O)NC(C)(C)C)[C@H]1CC=C2C3=C(CC[C@@]21C)[C@@]1(C)CC[C@H](O)C(C)(C)[C@@H]1CC3 | – | – | – | –
17 | 219 to 221 °C | CC(=O)NCCC[C@@H](C)[C@H]1CC=C2C3=C(CC[C@@]21C)[C@@]1(C)CC[C@H](O)C(C)(C)[C@@H]1CC3 | – | – | – | –
18 | 114 to 115 °C | C[C@H](CCCOCc1ccccc1)[C@H]1CC=C2C3=C(CC[C@@]21C)[C@@]1(C)CC[C@H](O)C(C)(C)[C@@H]1CC3 | – | – | – | –
19 | 188 to 190 °C | C[C@H](CCCC(C(=O)O)C(=O)O)[C@H]1CC=C2C3=C(CC[C@@]21C)[C@@]1(C)CC[C@H](O)C(C)(C)[C@@H]1CC3 | – | – | – | –
20 | 183 to 185 °C | CC(=O)CC[C@@H](C)[C@H]1CC=C2C3=C(CC[C@@]21C)[C@@]1(C)CC[C@H](O)C(C)(C)[C@@H]1CC3 | – | – | – | –
